Source: patent US20240108610A1, “RECTAL ADMINISTRATION OF ROFLUMILAST FOR THE TREATMENT OF CROHN'S DISEASE” (King Abdulaziz University, priority 2022, published 2024)
Marks after values point to notes of the source that are not given here.

Key:
[1] = system: MPO; test: Colonic MPO in colonic tissue homogenates, TNBS-induced colitis; format: in vivo, rat; conditions: means±SE, n = 8
Method: Chronic colitis was induced by weekly rectal injections of increasing doses of TNBS over 6 weeks (15, 30, 45, 60, 60, and 60 mg from day 0 to day 35), as previously described (4,12). Briefly, after food deprivation for 24 h, rats were anesthetized with an intraperitoneal injection of 1% isoflurane. TNBS was dissolved in ethanol (50%) and instilled into the colon using a cannula (0.25 mL), and then the rats were held upside down for 3 min to prevent escape of the intracolonic TNBS. Roflumilast was dissolved in dimethyl sulfoxide and diluted in 0.5% carboxymethyl cellulose sodium to a final concentration of 5.0 mg·kg^−1·day^−1 as previously described (13). Five groups of rats (n=8) were established: normal control (NC group), TNBS-treated (TNBS group, positive control), and three TNBS-treated groups that received oral sulfasalazine (SS group, 500 mg/kg) (14), oral roflumilast (by gastric gavage, OR group, 5 mg/kg), or rectal roflumilast (RR group, 5 mg/kg). Treatments were administered once daily in a volume of 200 μL for 15 days starting 48 h after the induction of colitis (from day 37) (15), and the control rats received equal amounts of vehicle. At the end of the treatment period, the rats were evaluated with the colitis activity score. […] At the end of the 15-day treatment period, the rats were sacrificed by cervical dislocation, and the colon was isolated, cleaned of feces, and measured for weight and length. Colonic myeloperoxidase (MPO) activity and glutathione (GSH) and malonaldehyde (MDA) levels were measured. […] The levels of MPO (a marker of neutrophil activity), GSH (one of the most important cellular antioxidants), and MDA (an indicator of lipid peroxidation) in colonic tissue homogenates were measured using the commercially available kits as previously described: MPO ELISA kit (Innovative Research) (18), GSH colorimetric assay kit (Innovative Research) (19), and MDA ELISA kit (Neobio Lab Comp., USA) (20).

[2] = system: KI-67; test: KI-67 immunostaining of colonic sections; format: in vivo, rat
Method: Chronic colitis was induced by weekly rectal injections of increasing doses of TNBS over 6 weeks (15, 30, 45, 60, 60, and 60 mg from day 0 to day 35), as previously described (4,12). Briefly, after food deprivation for 24 h, rats were anesthetized with an intraperitoneal injection of 1% isoflurane. TNBS was dissolved in ethanol (50%) and instilled into the colon using a cannula (0.25 mL), and then the rats were held upside down for 3 min to prevent escape of the intracolonic TNBS. Roflumilast was dissolved in dimethyl sulfoxide and diluted in 0.5% carboxymethyl cellulose sodium to a final concentration of 5.0 mg·kg^−1·day^−1 as previously described (13). Five groups of rats (n=8) were established: normal control (NC group), TNBS-treated (TNBS group, positive control), and three TNBS-treated groups that received oral sulfasalazine (SS group, 500 mg/kg) (14), oral roflumilast (by gastric gavage, OR group, 5 mg/kg), or rectal roflumilast (RR group, 5 mg/kg). Treatments were administered once daily in a volume of 200 μL for 15 days starting 48 h after the induction of colitis (from day 37) (15), and the control rats received equal amounts of vehicle. At the end of the treatment period, the rats were evaluated with the colitis activity score. To detect the effects of the treatments on systemic inflammatory processes, blood was collected for measurements of the proinflammatory mediators TNF-α, IL-2, and IL-6. At the end of the 15-day treatment period, the rats were sacrificed by cervical dislocation, and the colon was isolated, cleaned of feces, and measured for weight and length. Colonic myeloperoxidase (MPO) activity and glutathione (GSH) and malonaldehyde (MDA) levels were measured. The colon was examined macroscopically for gross changes and microscopically in sections stained with hematoxylin and eosin (H&E), Masson trichrome, and Periodic Acid Schiff (PAS) stains as well as KI-67 and TNF-α immunostaining. […] This primary antibody was detected using avidin-biotin peroxidase detection solution (Dako), and the signal was visualized using diaminobenzidine. […]

[3] = oral, once daily for 15 days, SS 500 mg/kg, OR 5 mg/kg
[4] = rectal, 5 mg/kg once daily for 15 days
[5] = oral, once daily for 15 days, sulfasalazine 500 mg/kg, roflumilast 5 mg/kg

| Compound | colonic MPO activity [1, 3] | colonic MPO activity [1, 4] | KI-67 immunoexpression in the mucosa [2, 5] | KI-67 immunoexpression in the mucosa [2, 4] |
| --- | --- | --- | --- | --- |
| O=C(Nc1c(Cl)cncc1Cl)c1ccc(OC(F)F)c(OCC2CC2)c1 [roflumilast] | 23.89 ± 0.92^a, b, c μ/g | 28.17 ± 1.00^a μ/g | mildly positive reactions | very mild positive reactions |
| O=C(O)c1cc(/N=N/c2ccc(S(=O)(=O)Nc3ccccn3)cc2)ccc1O [sulfasalazine] | 18.38 ± 0.87^a μ/g |  | moderately positive reactions |  |
